# Measured values as given in PMC3937722, “Biochemical studies on a versatile esterase that is most catalytically active with polyaromatic esters” (Microbial Biotechnology, 2014).
# Tested on: T1, CN1E1
# T1 construct: catalytic triad Ser155, Asp250, His280
# Assay: ester hydrolysis kinetics
# Assay type: biochemical, uncultured bacterium
# Conditions: 5 mM EPPS pH 8.0, 40°C
# Text: ester hydrolysis kinetics on CN1E1
row,Compound,Km [mM]
1,"COC(=O)/C=C/c1cc(O)ccc1O [2,5-Dihydroxycinnamic acid methyl ester]",1.06 ± 0.06
2,COC(=O)c1ccc2cc3ccccc3cc2c1 [Anthracene-2-carboxylic acid methyl ester],1.47 ± 0.05
3,"O=Cc1ccc(C(=O)OCc2ccccc2)cc1 [Benzoic acid, 4-formyl-, phenylmethyl ester]",0.64 ± 0.06
4,CCCCOC(C)=O [Butyl acetate],2.1 ± 0.17
5,COC(=O)c1ccccc1C(=O)OC [Dimethyl phthalate],1.59 ± 0.1
6,COC(=O)CBr [Methyl bromoacetate],1.7 ± 0.09
7,COC(=O)c1ccc2ccc3ccccc3c2c1 [Methyl phenanthrene-3-carboxylate],1.6 ± 0.09
8,COC(=O)c1cc2ccccc2c2ccccc12 [Methyl phenanthrene-9-carboxylate],0.53 ± 0.03
9,CC(=O)Oc1ccccc1 [Phenyl acetate],0.94 ± 0.05
10,CCOC(=O)c1ccc(O)c(O)c1 [Protocatechuic acid ethyl ester],1.14 ± 0.06
11,CC(=O)OC[C@H]1OC=C[C@@H](OC(C)=O)[C@@H]1OC(C)=O [Tri-O-acetyl-D-glucal],1.08 ± 0.05
12,CC(=O)OCC(COC(C)=O)OC(C)=O [Triacetin],1.64 ± 0.08
13,Naphthalene carboxylic acid methyl ester,0.71 ± 0.06

# Tested on: T1, CN1E1
# Assay: ester hydrolysis kinetics, p-nitrophenol release
# Assay type: biochemical, uncultured bacterium
# Conditions: pH 7.0 (b12; table heading says pH 8.0), 40°C
# Text: ester hydrolysis kinetics, p-nitrophenol release on CN1E1
row,Compound,Km [µM]
1,CC(=O)Oc1ccc([N+](=O)[O-])cc1 [pNP-acetate],190 ± 10
